We go through 28 molecules from patent US8784782B2 (Senomyx, Inc., priority 2005, dated 2014).

Molecules are shown by their SMILES.

The first test deals with T1, hT1R1/hT1R3 umami receptor expressed in an HEK293 cell line (Homo sapiens, UniProt Q7RTX0+Q7RTX1).
T1 construct: expressed in transfected cells; host or cells: HEK293 cell line derivative, hT1R1/hT1R3-HEK293-Gα15, clone I-17, mifepristone-induced
T1 sequence (Q7RTX1 21-841): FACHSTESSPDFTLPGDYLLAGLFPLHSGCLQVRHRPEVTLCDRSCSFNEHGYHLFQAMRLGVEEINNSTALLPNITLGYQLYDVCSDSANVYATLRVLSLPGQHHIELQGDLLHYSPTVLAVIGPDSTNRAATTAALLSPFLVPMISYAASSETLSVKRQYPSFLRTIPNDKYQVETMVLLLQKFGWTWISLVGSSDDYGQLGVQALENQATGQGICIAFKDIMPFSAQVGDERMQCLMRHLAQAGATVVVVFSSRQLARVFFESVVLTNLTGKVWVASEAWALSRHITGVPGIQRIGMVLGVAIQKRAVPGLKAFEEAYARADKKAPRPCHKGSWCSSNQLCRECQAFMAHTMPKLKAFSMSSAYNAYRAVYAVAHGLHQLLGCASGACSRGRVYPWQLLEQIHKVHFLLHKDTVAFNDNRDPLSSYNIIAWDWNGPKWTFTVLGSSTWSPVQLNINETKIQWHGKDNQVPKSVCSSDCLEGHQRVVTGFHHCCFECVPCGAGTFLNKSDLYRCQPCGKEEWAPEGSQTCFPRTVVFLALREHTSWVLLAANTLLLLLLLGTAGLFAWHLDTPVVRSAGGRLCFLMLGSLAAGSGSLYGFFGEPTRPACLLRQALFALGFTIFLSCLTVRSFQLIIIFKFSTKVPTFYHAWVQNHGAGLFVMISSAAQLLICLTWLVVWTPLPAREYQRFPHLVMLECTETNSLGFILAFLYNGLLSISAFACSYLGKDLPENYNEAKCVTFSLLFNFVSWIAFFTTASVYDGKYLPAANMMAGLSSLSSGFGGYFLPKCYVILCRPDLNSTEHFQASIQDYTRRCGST
T1 sequence (Q7RTX0 21-852): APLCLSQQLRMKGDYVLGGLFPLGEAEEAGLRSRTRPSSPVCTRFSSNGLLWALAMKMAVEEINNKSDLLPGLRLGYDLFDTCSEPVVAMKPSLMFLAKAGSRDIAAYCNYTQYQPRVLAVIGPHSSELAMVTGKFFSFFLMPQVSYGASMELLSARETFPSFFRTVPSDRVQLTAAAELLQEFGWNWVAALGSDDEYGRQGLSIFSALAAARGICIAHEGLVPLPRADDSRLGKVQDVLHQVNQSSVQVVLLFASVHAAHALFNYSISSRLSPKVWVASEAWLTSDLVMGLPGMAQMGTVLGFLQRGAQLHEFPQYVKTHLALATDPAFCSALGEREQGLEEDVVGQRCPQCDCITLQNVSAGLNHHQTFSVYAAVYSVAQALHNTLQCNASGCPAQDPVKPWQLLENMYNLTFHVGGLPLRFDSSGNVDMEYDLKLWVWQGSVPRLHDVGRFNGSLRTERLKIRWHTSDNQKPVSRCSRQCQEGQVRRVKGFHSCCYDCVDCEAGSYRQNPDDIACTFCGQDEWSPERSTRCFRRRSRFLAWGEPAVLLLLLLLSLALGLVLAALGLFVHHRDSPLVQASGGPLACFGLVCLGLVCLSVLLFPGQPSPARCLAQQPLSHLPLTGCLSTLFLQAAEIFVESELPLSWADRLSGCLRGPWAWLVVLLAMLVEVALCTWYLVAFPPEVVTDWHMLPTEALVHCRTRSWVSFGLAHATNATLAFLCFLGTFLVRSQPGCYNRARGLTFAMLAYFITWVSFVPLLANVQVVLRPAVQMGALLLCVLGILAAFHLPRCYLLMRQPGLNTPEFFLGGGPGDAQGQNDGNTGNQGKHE
The experiment in a line: In vitro hT1R1/hT1R3 umami taste receptor activation assay (FLIPR, dose response). In kind it is cell-based. As to conditions: Table A, triazoles; read-out: Umami EC50. The procedure:
Activity was determined using an automated fluorometric imaging assay on a FLIPR instrument ([…], Molecular Devices, Sunnyvale, Calif.) (designated FLIPR assay). […] After replacement with 25 μl D-PBS, stimulation was performed in the FLIPR instrument and at room temperature by the addition of 25 μl D-PBS supplemented with different stimuli at concentrations corresponding to twice the desired final level. Receptor activity was quantified by determining the maximal fluorescence increases (using a 480 nm excitation and 535 nm emission) after normalization to basal fluorescence intensity measured before stimulation.
Activities were normalized to the response obtained with 60 mM monosodium glutamate, a concentration that elicits maximum receptor response.
Take `Clc1ccccc1-c1n[nH]c(SCc2ccccn2)n1` [Example A14, 2-((5-(2-chlorophenyl)-2H-1,2,4-triazol-3-ylthio)methyl)pyridine]: the EC50 amounted to 2.48 µM.

`Cc1cccc(-c2n[nH]c(SCc3ccccn3)n2)c1` [Example A8, 2-((5-m-tolyl-2H-1,2,4-triazol-3-ylthio)methyl)pyridine]: the EC50 turned out to be 0.94 µM. On the same count and under the same terms, with `COc1ccc(-c2n[nH]c(SCc3ccccn3)n2)cc1` [Example A6, 2-((5-(4-methoxyphenyl)-2H-1,2,4-triazol-3-ylthio)methyl)pyridine] the figure was 0.52 µM. Still for that read-out and setting: with `Cn1c(Cc2ccccc2)nnc1SCc1ccc(Cl)c(Cl)c1` [Example A23, 3-benzyl-5-(3,4-dichlorobenzylthio)-4-methyl-4H-1,2,4-triazole] the figure was 13 µM. Turning to `Cn1c(Cc2ccsc2)nnc1SCc1ccc(Cl)cc1` [Example A27, 3-(4-chlorobenzylthio)-4-methyl-5-(thiophen-3-ylmethyl)-4H-1,2,4-triazole], the EC50 came out at 7.92 µM. Still for that read-out and setting: with `CCn1c(SCc2cccnc2)nnc1-c1cccc(C)c1` [Example A25, 3-((4-ethyl-5-m-tolyl-4H-1,2,4-triazol-3-ylthio)methyl)pyridine] the figure was 13.1 µM; with `c1ccc(CSc2nc(-c3cccc4c3OCO4)n[nH]2)nc1` [Example A11, 2-((5-(benzo[d][1,3]dioxol-4-yl)-2H-1,2,4-triazol-3-ylthio)methyl)pyridine], 1.35 µM; with `COc1ccccc1-c1n[nH]c(SCCc2ccccn2)n1` [Example A22, 2-(2-(5-(2-methoxyphenyl)-2H-1,2,4-triazol-3-ylthio)ethyl)pyridine], 7.38 µM. Same read-out and setting: to `Cc1ccoc1-c1n[nH]c(SCc2ccccn2)n1` [Example A21, 2-((5-(3-methylfuran-2-yl)-2H-1,2,4-triazol-3-ylthio)methyl)pyridine] belongs 9.41 µM; to `CCn1c(SCc2cccnc2)nnc1-c1cc2ccccc2cc1O` [Example A26, 3-(4-ethyl-5-(pyridin-3-ylmethylthio)-4H-1,2,4-triazol-3-yl)naphthalen-2-ol], 1.89 µM; to `COc1ccc(-c2n[nH]c(SCc3ccc(C)cn3)n2)c(OC)c1` [Example A9, 2-((5-(2,4-dimethoxyphenyl)-2H-1,2,4-triazol-3-ylthio)methyl)-5-methylpyridine], 1.07 µM. For `Cn1c(Cc2ccccc2)nnc1SCc1ccc(Cl)cc1Cl` [Example A24, 3-benzyl-5-(2,4-dichlorobenzylthio)-4-methyl-4H-1,2,4-triazole], the EC50 was determined as 6.05 µM.

Staying with this test, now noted: Table B, pyridazines; read-out: Umami EC50.
Turning to `COc1ccc(-c2ccc(SCc3ccccn3)nn2)cc1OC` [Example B2, 3-(3,4-dimethoxyphenyl)-6-(pyridin-2-ylmethylthio)pyridazine], the EC50 was 1.7 µM. `c1cncc(CSc2ccc(-c3ccc4c(c3)OCCO4)nn2)c1` [Example B3, 3-(2,3-dihydrobenzo[b][1,4]dioxin-6-yl)-6-(pyridin-3-ylmethylthio)pyridazine]: the EC50 stood at 8.4 µM. For the molecule `c1ccc(CSc2ccc(-c3ccc4c(c3)OCCO4)nn2)nc1` [Example B1, 3-(2,3-dihydrobenzo[b][1,4]dioxin-yl)-6-(pyridin-2-ylmethylthio)pyridazine], the EC50 worked out at 0.6 µM.

Still in this test, the particulars now being: Table C, tetrazole; read-out: Umami EC50.
In the case of `CSc1ccc(-c2nnn(Cc3ccccn3)n2)cc1` [Example C1, 2-((5-(4-(methylthio)phenyl)-2H-tetrazol-2-yl)methyl)pyridine], the EC50 worked out at 5.91 µM.

Still in this test, the particulars now being: read-out: EC50 for activation of a hT1R1/hT1R3 umami receptor expressed in an HEK293 cell line.
On to `Cc1ccc(-c2cn(Cc3ccccn3)nn2)cc1` [Example 11, 2-((4-p-Tolyl-1H-1,2,3-triazol-1-yl)methyl)pyridine], for which the EC50 stood at 4.66 µM. Same read-out and setting: with `Cc1cc(-c2nc(SCc3ccccn3)n[nH]2)oc1C` [Example 5, 2-((5-(4,5-dimethylfuran-2-yl)-1H-1,2,4-triazol-3-ylthio)methyl)pyridine] the figure was 0.58 µM. Same read-out and setting: with `COc1ccc(Cc2nc(SCc3ccccn3)n[nH]2)c(OC)c1` [Example 9, 2-((5-(2,4-dimethoxybenzyl)-1H-1,2,4-triazol-3-ylthio)methyl)pyridine] the figure was 1.2 µM; with `Cc1ccc(-c2ccc(OCc3ccccn3)nn2)c(C)c1` [Example 15, 3-(2,4-Dimethylphenyl)-6-(pyridin-2-ylmethoxy)pyridazine], 6.9 µM. In the case of `Cc1ccc(-c2cn(CCc3ccccn3)nn2)cc1` [Example 12, 2-(2-(4-p-Tolyl-1H-1,2,3-triazol-1-yl)ethyl)pyridine], the EC50 was determined as 16.4 µM. Still for that read-out and setting: with `Cc1ccc(-c2ccc(SCc3cccnc3)nn2)c(C)c1` [Example 17] the figure was 15.2 µM. On to `CCc1ccc(-c2nc(SCc3ccccn3)n[nH]2)c(C)c1` [Example 10, 2-((5-(4-Ethyl-2-methylphenyl)-1H-1,2,4-triazol-3-ylthio)methyl)pyridine], for which the EC50 was found to be 0.02 µM.

With `Cc1ccc(-c2ccc(SCc3ccccc3)nn2)c(C)c1` [Example 14, 3-(Benzylthio)-6-(2,4-dimethylphenyl)pyridazine], the EC50 stood at 2.7 µM. On the same count and under the same terms, with `Cc1ccc(-c2ccc(SCc3ccccn3)nn2)c(C)c1` [Example 13, 3-(2,4-Dimethylphenyl)-6-(pyridin-2-ylmethylthio)pyridazine] the figure was 1.5 µM.

Consider `Cc1ccc(-c2nnc(NCc3ccccn3)o2)c(C)c1` [Example 16, 5-(2,4-Dimethylphenyl)-N-(pyridin-2-ylmethyl)-1,3,4-oxadiazol-2-amine], for which the EC50 came to 10.3 µM. On to `CCc1ccc(-c2nc(SCc3ccccn3)n[nH]2)c(OC)c1` [Example 18, 2-((5-(4-ethyl-2-methoxyphenyl)-1H-1,2,4-triazol-3-ylthio)methyl)pyridine], for which the EC50 was 0.05 µM. Same read-out and setting: with `COc1cc(C)ccc1-c1nc(SCc2ccc(C)cn2)n[nH]1` [Example 2, 2-((5-(2-methoxy-4-methylphenyl)-1H-1,2,4-triazol-3-ylthio)methyl)-5-methylpyridine] the figure was 0.49 µM.

A further test has as its target T1, hT1R1/hT1R3 umami receptor expressed in an HEK293 cell line. The experiment in a line: Umami taste enhancement activity assay (EC50 ratio vs. MSG, FLIPR). In kind it is cell-based. Conditions: compound present at 0.1 μM. The procedure:
A series of measurements of the dose response is run in solutions comprising MSG alone, then a second dose response is run with MSG in combination with predetermined amounts of a candidate compound of Formula (I) at the same time.
Typical compound concentrations tested were 30 μM, 10 μM, 3 μM, 1 μM, 0.3 μM, 0.1 μM and 0.03 μM. The relative efficacy of compounds of Formula (I) at enhancing the receptor was determined by calculating the magnitude of a shift in the EC50 for monosodium glutamate. Enhancement was defined as a ratio (EC50R) corresponding to the EC50 of monosodium glutamate, determined in the absence of the test compound, divided by the EC50 of monosodium glutamate, determined in the presence of the test compound.
Stated alternatively, “EC50 ratio” as compared to MSG is calculated based on the following definitions: EC50 Ratio vs. MSG=EC50 (MSG)/EC50 (MSG+[Compound]) • wherein “[compound]” refers to the concentration of the compound of Formula (I) used to elicit (or enhance or potentiate) the MSG dose response.
On to `Cc1cc(-c2nc(SCc3ccccn3)n[nH]2)oc1C` [Example 5, 2-((5-(4,5-dimethylfuran-2-yl)-1H-1,2,4-triazol-3-ylthio)methyl)pyridine], for which the “EC50 ratio (enhanced the effectiveness of monosodium glutamate)” value was 4.4. Still for that read-out and setting: with `COc1ccc(Cc2nc(SCc3ccccn3)n[nH]2)c(OC)c1` [Example 9, 2-((5-(2,4-dimethoxybenzyl)-1H-1,2,4-triazol-3-ylthio)methyl)pyridine] the figure was 2.66.
